Values quoted from earlier work in patent publication US6572638B1, “Method of controlling body temperature while inhibiting thermoregulatory responses” (Radiant Medical, Inc., priority 1999, dated 2003).

Tested on: shivering threshold
Settings: patients at normal temperature warmed until sweating then cooled until shivering occurred; Talke, et al., Anesthesiology 87(4):835-841, 1997

In the case of `Clc1cccc(Cl)c1N=C1NCCN1` [clonidine], the “effect on shivering threshold” value is listed as “able to lower the shivering threshold”.

In the case of `Cc1cccc([C@H](C)c2cnc[nH]2)c1C` [dexmedetomidine], the “effect on shivering threshold” value is given as “able to lower the shivering threshold”.
